Experimental findings from patent US8729091B2, “4-phenoxy-nicotinamide or 4-phenoxy-pyrimidine-5-carboxamide compounds” (Hoffmann-La Roche Inc., priority 2010, dated 2014) are described below.

The experiment concerns the target T1, human GPBAR1 receptor (Homo sapiens, UniProt Q8TDU6).
T1 construct: expressed in transfected cells
T1 sequence (Q8TDU6 1-330): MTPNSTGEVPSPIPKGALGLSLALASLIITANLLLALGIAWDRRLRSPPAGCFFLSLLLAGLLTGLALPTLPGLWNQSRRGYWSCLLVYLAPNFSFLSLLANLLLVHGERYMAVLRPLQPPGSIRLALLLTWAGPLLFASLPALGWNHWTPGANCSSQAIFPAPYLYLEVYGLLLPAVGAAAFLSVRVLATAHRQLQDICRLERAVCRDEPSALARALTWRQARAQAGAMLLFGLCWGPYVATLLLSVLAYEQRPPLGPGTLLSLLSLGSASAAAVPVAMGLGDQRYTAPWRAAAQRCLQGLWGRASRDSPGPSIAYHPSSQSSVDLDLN
As to the kind of experiment: functional cAMP assay in CHO-dhfr(minus) cells expressing human GPBAR1 receptors. It counts as cell-based. The settings on record: cAMP increase (TR-FRET) in CHO-dhfr(minus) cells expressing human GPBAR1; compounds incubated 30 min at 30° C. How it is done: The final clone was verified by DNA sequence analysis. The plasmid was transfected into CHO cells deficient in dihydrofolate reductase activity (CHO-dhfr−) using Lipofectamine plus (Invitrogen). Clones were isolated in limited dilution conditions and identified by activities in the cAMP assay using lithocholic acid as agonist.
The growth medium was exchanged with Krebs Ringer Bicarbonate buffer with 1 mM IBMX and incubated at 30° C. for 30 min. Compounds were added to a final assay volume of 100 μl and incubated for 30 min at 30° C. […] The time-resolved energy transfer is measured by a TRF reader (Evotec Technologies GmbH, Hamburg Germany), equipped with a ND:YAG laser as excitation source.
EC50 values were determined using Activity Base analysis (ID Business Solution, Limited). […] Specificity for GPBAR1 was tested in non-transfected CHO cells in the same assay as above.
`COC(=O)c1cc(Cl)c(Oc2ccncc2C(=O)N2CCN(C3CC3)c3ccccc32)cc1Cl` [Example 27, 2,5-Dichloro-4-[3-(4-cyclopropyl-3,4-dihydro-2H-quinoxaline-1-carbonyl)-pyridin-4-yloxy]-benzoic acid methyl ester] returned an EC50 of 4 nM.

`CCOC(=O)CCNC(=O)c1cc(Cl)c(Oc2ccncc2C(=O)N2CCN(C3CC3)c3ccccc32)cc1Cl` [Example 33, 3-{2,5-Dichloro-4-[3-(4-cyclopropyl-3,4-dihydro-2H-quinoxaline-1-carbonyl)-pyridin-4-yloxy]-benzoylamino}-propionic acid ethyl ester] yielded an EC50 of 20 nM.

In turn, `COc1ncccc1N(C)C(=O)c1cncnc1Oc1cc(Cl)ccc1Cl` [Example 80, 4-(2,5-Dichloro-phenoxy)-pyrimidine-5-carboxylic acid (2-methoxy-pyridin-3-yl)-methyl-amide] came in with an EC50 of 90 nM.

For `O=C(c1cnccc1Oc1cc(Cl)c(O)cc1Cl)N1CCN(C2CC2)c2ccccc21` [Example 57, (4-Cyclopropyl-3,4-dihydro-2H-quinoxalin-1-yl)-[4-(2,5-dichloro-4-hydroxy-phenoxy)-pyridin-3-yl]-methanone], a half-maximal response (EC50) required 10 nM.

`O=C(O)CCNC(=O)c1cc(Cl)c(Oc2ccncc2C(=O)N2CCN(C3CC3)c3ccccc32)cc1Cl` [Example 34, 3-{2,5-Dichloro-4-[3-(4-cyclopropyl-3,4-dihydro-2H-quinoxaline-1-carbonyl)-pyridin-4-yloxy]-benzoylamino}-propionic acid] came in with an EC50 of 300 nM.

`O=C(O)COc1cc(Cl)c(Oc2ccncc2C(=O)N2CCN(C3CC3)c3ccccc32)cc1Cl` [Example 59, {2,5-Dichloro-4-[3-(4-cyclopropyl-3,4-dihydro-2H-quinoxaline-1-carbonyl)-pyridin-4-yloxy]-phenoxy}-acetic acid] showed an EC50 of 500 nM.

`Cc1nc(NC(=O)c2cc(Cl)c(Oc3ccncc3C(=O)N3CCN(C4CC4)c4ccccc43)cc2Cl)sc1C(=O)O` [Example 46, 2-{2,5-Dichloro-4-[3-(4-cyclopropyl-3,4-dihydro-2H-quinoxaline-1-carbonyl)-pyridin-4-yloxy]-benzoylamino}-4-methyl-thiazole-5-carboxylic acid] showed an EC50 of 30 nM.

`Cc1cc(Oc2cc(Cl)c(C(=O)O)cc2Cl)c(C(=O)N2CCN(C3CC3)c3ccccc32)cn1` [Example 66, 2,5-Dichloro-4-[5-(4-cyclopropyl-3,4-dihydro-2H-quinoxaline-1-carbonyl)-2-methyl-pyridin-4-yloxy]-benzoic acid] showed a concentration for a half-maximal effect (EC50) of 300 nM.

In turn, `O=C(c1cnccc1Oc1cc(Cl)ccc1Cl)N1CCN(C2CC2)c2cc(Cl)ccc21` [Example 11, (6-Chloro-4-cyclopropyl-3,4-dihydro-2H-quinoxalin-1-yl)-[4-(2,5-dichloro-phenoxy)-pyridin-3-yl]-methanone] came in with an EC50 of 10 nM.

The molecule `O=C(c1cnccc1Oc1cc(Cl)c(Br)cc1Cl)N1CCN(C2CC2)c2ccccc21` [Example 26, [4-(4-Bromo-2,5-dichloro-phenoxy)-pyridin-3-yl]-(4-cyclopropyl-3,4-dihydro-2H-quinoxalin-1-yl)-methanone] came in with an EC50 of 4 nM.

`CCOC(=O)c1nnc(NC(=O)c2cc(Cl)c(Oc3ccncc3C(=O)N3CCN(C4CC4)c4ccccc43)cc2Cl)s1` [Example 47, 5-{2,5-Dichloro-4-[3-(4-cyclopropyl-3,4-dihydro-2H-quinoxaline-1-carbonyl)-pyridin-4-yloxy]-benzoylamino}-[1,3,4]thiadiazole-2-carboxylic acid ethyl ester] came in with an EC50 of 100 nM.

In the case of `CN(C(=O)c1cnccc1Oc1cc(Cl)ccc1Cl)c1ccccc1N1CCCCC1` [Example 17, 4-(2,5-Dichloro-phenoxy)-N-methyl-N-(2-piperidin-1-yl-phenyl)-nicotinamide], the EC50 turned out to be 1900 nM. Compared with the last molecule, the EC50 is about 19-fold higher.
